Measurements reported in patent publication US10172820B2, “Skin preparation composition for external use having excellent antiseptic ability” (AMOREPACIFIC CORPORATION, priority 2011, dated 2019).

Assay: Skin irritation test (24 hour patch test)
Set-up: species or system human
Details: in vivo; for Average skin irritation score: human, 24 h
Method: The patch is applied to the upper part of the back of each panel, using 20 μL of the test ingredient on an IQ chamber (Chemotechique, […]). The patch is removed after 24 hours of application and a first evaluation is conducted in 30 more minutes. After 24 hours, a second evaluation is carried out. To determine the severity of the skin irritation of each specimen, a weighted grade is applied according to the severity of the positive reaction on the skin to calculate the average skin irritation score as given by the following Equation and determine the severity of the skin irritation from the specimen. […] Mild irritation Score≥5: Severe irritation

Compound	Average skin irritation score (5 %)	Skin irritation, result in words	Average skin irritation score (4 %)	Average skin irritation score (1 %)
CCCCCCCC(=O)OCC(O)CO (stereo not drawn) [Glyceryl caprylate, glyceryl caprylate]	0.94	almost no irritation	–	–
C=CCCCCCCCCC(=O)OCC(O)CO (stereo not drawn) [Glyceryl undecylenate, glyceryl undecylenate]	–	almost no irritation	0.00	–
COc1ccc(C(=O)O)cc1 [p-anisic acid]	–	almost no irritation	–	0.94
